Measurements published in US11440939B2, “Anticancer peptides” (IDP DISCOVERY PHARMA, S.L., priority 2017, dated 2022).
Numbered stars: 1 amine (or outer) side, 2 acyl side, 3 side chain; on linkers, the order of the positions; unused ones are H or OH. Bridge positions count the residues as written; N and C are the ends. Square brackets hold non-standard residues; d marks the D form. Peptide text beside a SMILES is read from it. ξ: configuration not given here. ξαMeNle(6-ylidene) = CC(CCCC=[*:3])(N[*:1])C(=O)[*:2]; X1 = CC(CCCCCCC=[*:3])(N[*:1])C(=O)[*:2]; R8 = C=CCCCCCC[C@@](C)(N)C(=O)O; S5 = C=CCCC[C@](C)(N)C(=O)O

Legend:
NCI-H524 = assay type: cell-based; details: 72 h
Procedure: NCI-H524, lung (small cell lung cancer, SCLC), ATCC-CRL-5831;
(§1) Cell line MCF-7 was cultured in incubator under CO2 (6%) at 37° C. in DMEM high glucose (Dulbecco's Modified Eagle Solution, Gibco-BRL 31966-21) medium with 10% fetal bovine serum inactivated (FBS) (Gibco-BRL 10106-169). Cell lines HL-60, NCI-H524, NCI-H526, NCI-H69, NCI-H82, NCI-H187 and H5B were cultured in an incubator at 37° C. in RPMI-1640 (Sigma R8758) medium with 10% of fetal bovine serum inactivated (FBS) and 2 mM glutamine (Sigma G7513). Cell line NCI-H510A was cultured in incubator in F12K medium with 10% of fetal bovine serum inactivated (FBS). Cell line GBM-18 and GBM-27 were cultured in incubator under CO2 (6%) at 37° C. in complete medium (Neurobasal+B27+Glutamax+Growth factors).
During the amplification step and the assays, adherent cells were rinsed with DPBS (Dulbecco's Phosphate Buffered Saline, Sigma D1283) three times and afterward treated for 5 minutes with trypsin ([…]) (Gibco-BRL, 15400054) in solution of DPBS at 37° C., and, once detached, transferred in the culturing medium. No-adherent cells were centrifuged and transferred in the culturing medium. Cells were counted in a Neubauer chamber after labelling with Tripan-Blue. […]
(§2) Cells were incubated during 72 h in incubator under CO2 atmosphere at 37° C. Cell viability was measured by means of MTT (3-(4,5-dimethylthiazol-2-yl)-2,5-diphenyltetrazolium bromide) assay, Alamar Blue® (Biosource DAL1100) and Hexosaminidase activity test, consecutively, following manufacturer instructions.
MTT: 1. […] Absorbance at 570 nm was finally measured.
Alamar Blue: 10 μl Alamar Blue solution was added to each well and the plates were incubated for […] in the incubator. Fluorescence ratio at 535/590 (excitation/emission) was measured in Cytofluor (Millipore) fluorimeter. Blank control was determined by lysis of untreated cells with con 2% of Triton X100, right before adding Alamar Blue solution. […]

NCI-H526 = details: 72 h
Procedure: NCI-H526, epithelial (small cell lung cancer, SCLC), ATCC-CRL-5811;
During the amplification step and the assays, adherent cells were rinsed with DPBS (Dulbecco's Phosphate Buffered Saline, Sigma D1283) three times and afterward treated for 5 minutes with trypsin ([0.5 g/ml]/EDTA [0.2 g/ml]) (Gibco-BRL, 15400054) in solution of DPBS at 37° C., and, once detached, transferred in the culturing medium. No-adherent cells were centrifuged and transferred in the culturing medium. Cells were counted in a Neubauer chamber after labelling with Tripan-Blue. […]
MTT: 1. […] Absorbance at 570 nm was finally measured. […]

NCI-H82 = assay type: cell-based; details: 72 h
Procedure: NCI-H82, epithelial (small cell lung cancer, SCLC), ATCC-CRL-5811;
as §1
(§3) During the amplification step and the assays, adherent cells were rinsed with DPBS (Dulbecco's Phosphate Buffered Saline, Sigma D1283) three times and afterward treated for 5 minutes with trypsin ([…]) (Gibco-BRL, 15400054) in solution of DPBS at 37° C., and, once detached, transferred in the culturing medium. No-adherent cells were centrifuged and transferred in the culturing medium. Cells were counted in a Neubauer chamber after labelling with Tripan-Blue.
(§4) MCF-7, NCI-H187, NCI-H69, NCI-H526 and H5B cells were seeded at a density of 5000 cells/well; NCI-H524 and NCI-H82 were seeded at a density of 2500 cells/well; HL-60 and NCI-H510A at 10000 cells/well in 100 μl of medium in 96 well plates. After 24 h, the compounds to be tested were added to calculate the dose/response curve at the starting concentration of 100 μM with serial dilutions (1:1). Controls were the untreated cells. Each experiment was performed in triplicate.
as §2
(§5) MTT: 1. Stock solution of MTT (475989 Calbiochem) was 5 mg/ml in PBS 1×. As negative control (experiment noise) 3 wells were treated with 20 μl/well of a solution of SDS 10% in H2O. The same control was used for Alamar Blue/Hexosaminidase. 10 μl/well of MTT solution were added and the plate was incubated for 3-4 hr. The medium was discarded and 100 μl of extracting buffer (PBS 1×, 15% SDS, 50% […] N,N-Dimethylformamide, pH 4,7) were added to each well. Plates were incubated for 16 h at room temperature under orbital shaking. Absorbance at 570 nm was finally measured.
(§6) Alamar Blue: 10 μl Alamar Blue solution was added to each well and the plates were incubated for […] in the incubator. Fluorescence ratio at 535/590 (excitation/emission) was measured in Cytofluor (Millipore) fluorimeter. Blank control was determined by lysis of untreated cells with con 2% of Triton X100, right before adding Alamar Blue solution.
(§7) Hexosaminidase activity test: after Alamar Blue lecture, medium was discarded and plates were rinsed once with PBS. 60 μl hexosaminidase substrate (p-nitrophenol-N-acetyl-beta-D-glucosamide 7.5 mM [Sigma N-9376], sodium citrate 0.1 M, pH 5.0, 0.25% Triton X-100) was added to each well and the plates were incubated at 37° C. for 2-5 h, according to the cell type (hexosaminidase activity changes according to the cell type). […] Blank control was the same as described before.
(§8) Data analysis was performed calculating the percentage of cell viability normalized vs. the values of negative control, which was considered equal to 100%. The dose/response curve was fitted through the sigmoidal equation dose-response (variable slope) and the EC50 values were calculated as follow: Y=Bottom+(Top−Bottom)/(1+10^{[(Log EC50−X)*HillSlope]},

cancer cell lines = assay: Inhibition of cancer cell proliferation, general statements; assay type: cell-based
Procedure: as §4, §2, §8

NCI-H510A = assay type: cell-based; details: 72 h
Procedure: (§9) NCI-510A, epithelial (small cell lung cancer, SCLC), ATCC-HBT-124; and Hepatocytes (normal liver), from a donor was provided by Foundation DTI-Donation & Transplantation Institute from surgical wastes and from organs not suitable for transplantation
as §1, §3, §4, §2, §5, §6, §7, §8

NCI-H187 = assay type: cell-based; details: 72 h
Procedure: NCI-H187, epithelial (small cell lung cancer, SCLC), ATCC-CRL-5804;
as §1, §3, §4, §2, §5, §6, §7, §8

Human hepatocytes = assay: Hepatotoxicity assay, trypan blue exclusion, 24 h; assay type: cell-based; details: human hepatocytes, 0.5% SDS
Description: as §9
Human liver from a donor was subjected to hepatocyte isolation by using a two-step tissue microperfusion technique taking maximum care to avoid anoxia before cannulation, since hepatocytes are cells highly sensitive to oxygen levels. An initial anoxic state could result in a low viability of the cells, and will later affect their metabolic capacity in the culture. Briefly, liver tissue was cannulated by using the accessible vessels with a 1 mm-diameter needle. A balanced salt solution was injected to clean the organ by using a peristaltic pump adjusted to a flow rate of 18-20 ml/min. After washing, a solution containing collagenase was added for liver disintegration. The cell suspension obtained using this process was filtered and centrifuged and, after a couple of washings to remove collagenase, cells were re-suspended in culture medium Ham's F-12/William (1:1) medium supplemented with 2 mM glutamine, […] sodium selenite, 2% newborn calf serum, 50 mU/ml penicillin, 50 μg/ml streptomycin, 0.1% bovine serum albumin, 1.68 mM NAME, 26 mM sodium bicarbonate, 25 μg/ml transferrin, 65.5 μM ethanolamine, 7.2 μM linoleic acid, 17.5 mM glucose, 6.14 mM ascorbic acid and 10 nM insulin.
After resuspension, a cell aliquot was removed and viability was determined by cell counting using the trypan blue exclusion method. Trypan blue uptake is the result of cell membrane alteration and in consequence of cell death. Thus, to quantify cell viability, 0.4% trypan blue in saline was added to the cells and these were immediately loaded in a Neubauer chamber. Viable cells were counted in 5 different fields under the optical microscope as non-blue cells. % Viability=Number of non-blue cells×100/Number of total cells Viability and Hepatoxicity Assay
Human hepatocytes isolated and re-suspended as described before were seeded at 100,000 viable cells/well on 96 collagen-coated plates in order to assess compound's cytotoxicity. After 1 hour in culture, medium was renewed to eliminate cell debris. Cultured human hepatocytes were allowed to stay in culture for 24 hours prior performing the experiments. After 24 h, the compounds to be tested were added to calculate the dose/response curve at the starting concentration of 400 μM with serial dilutions. Each experiment was performed in triplicate. Cells were incubated during 24 h in incubator under CO2 atmosphere at 37° C.
The viability was determined by cell counting using the trypan blue exclusion method. % Viability=Number of non-blue cells×100/Number of total cells Statistics

SMILES	EC50 (NCI-H524)	EC50 (NCI-H526)	EC50 (NCI-H82)	EC50 (NCI-H510A)	EC50 (NCI-H187)	inhibition of cancer cell proliferation (in words) (cancer cell lines)	% Viability (Human hepatocytes)
CC(C)C[C@H](NC(=O)[C@H](CCCCN)NC(=O)[C@@H](NC(=O)[C@H](CCCNC(=N)N)NC(=O)[C@H](CC(N)=O)NC(=O)[C@@H](N)CCCNC(=N)N)C(C)C)C(=O)N[C@H](C(=O)N[C@@H](CC(N)=O)C(=O)N[C@@H](CC(C)C)C(=O)N[C@]1(C)CCCCCCC=CCCC[C@@](C)(C(N)=O)NC(=O)[C@H](CCC(=O)O)NC(=O)[C@H](CCCNC(=N)N)NC(=O)[C@H](CC(C)C)NC(=O)[C@H]([C@@H](C)O)NC(=O)[C@H](C)NC(=O)[C@H](Cc2ccccc2)NC1=O)C(C)C [H04] (H-RNRVKLVNL[R8]FATLRE[S5]-NH2; staple 10-17; N-terminus and C-terminus assumed)	~9 µM	~11 µM					
CC(C)C[C@H](NC(=O)[C@H](CCCCN)NC(=O)[C@@H](NC(=O)[C@@H](N)CCCNC(=N)N)C(C)C)C(=O)N[C@H](C(=O)N[C@@H](CCC(N)=O)C(=O)N[C@@H](CC(C)C)C(=O)NC1(C)CCCCCCC=CCCCC(C)(C(=O)N[C@H](C(=O)N2CCC[C@H]2C(N)=O)C(C)C)NC(=O)[C@H](CCC(=O)O)NC(=O)[C@H](CCCNC(=N)N)NC(=O)[C@H](CC(C)C)NC(=O)[C@H]([C@@H](C)O)NC(=O)[C@H](C)NC(=O)[C@H](Cc2ccccc2)NC1=O)C(C)C (stereo partly drawn) [IDP-H14-Q6] (H-RVKLVQL[X1]FATLRE[ξαMeNle(6-ylidene)]VP-NH2; staple 8-15; N-terminus and C-terminus assumed)			~7.5 µM	~12.5 µM	~7.5 µM	active	
CC(C)C[C@H](NC(=O)[C@H](CCCCN)NC(=O)[C@@H](NC(=O)[C@@H](N)CCCNC(=N)N)C(C)C)C(=O)N[C@H](C(=O)N[C@@H](CC(N)=O)C(=O)N[C@@H](CC(C)C)C(=O)NC1(C)CCCCCCC=CCCCC(C)(C(=O)N[C@H](C(=O)N2CCC[C@H]2C(N)=O)C(C)C)NC(=O)[C@H](CCC(N)=O)NC(=O)[C@H](CCCNC(=N)N)NC(=O)[C@H](CC(C)C)NC(=O)[C@H]([C@@H](C)O)NC(=O)[C@H](C)NC(=O)[C@H](Cc2ccccc2)NC1=O)C(C)C (stereo partly drawn) [IDP-H14-Q13] (H-RVKLVNL[X1]FATLRQ[ξαMeNle(6-ylidene)]VP-NH2; staple 8-15; N-terminus and C-terminus assumed)			~7.5 µM	~12.5 µM	~7.5 µM	active	
CC(C)C[C@H](NC(=O)[C@H](CCCCN)NC(=O)[C@@H](NC(=O)[C@@H](N)CCCNC(=N)N)C(C)C)C(=O)N[C@H](C(=O)N[C@@H](CC(N)=O)C(=O)N[C@@H](CC(C)C)C(=O)NC1(C)CCCCCCC=CCCCC(C)(C(=O)N[C@H](C(=O)N[C@@H](CCC(N)=O)C(N)=O)C(C)C)NC(=O)[C@H](CCC(=O)O)NC(=O)[C@H](CCCNC(=N)N)NC(=O)[C@H](CC(C)C)NC(=O)[C@H]([C@@H](C)O)NC(=O)[C@H](C)NC(=O)[C@H](Cc2ccccc2)NC1=O)C(C)C (stereo partly drawn) [IDP-H14-Q15] (H-RVKLVNL[X1]FATLRE[ξαMeNle(6-ylidene)]VQ-NH2; staple 8-15; N-terminus and C-terminus assumed)			~7.5 µM	~7.5 µM	~7.5 µM	active	
CCCCCCCCCCCCOS(=O)(=O)[O-].[Na+] [SDS, reference compound]							13.6%

More lines, main results first:

EC50 (NCI-H524)	EC50 (NCI-H526)	EC50 (NCI-H82)	EC50 (NCI-H510A)	EC50 (NCI-H187)	SMILES	inhibition of cancer cell proliferation (in words) (cancer cell lines)	% Viability (Human hepatocytes)
~15 µM	~10 µM				CC(C)C[C@@H]1NC(=O)[C@H](CC(N)=O)NC(=O)[C@H](C(C)C)NC(=O)C(C)(NC(=O)[C@H](CCCCN)NC(=O)[C@@H](NC(=O)[C@H](CCCNC(=N)N)NC(=O)[C@H](CC(N)=O)NC(=O)[C@@H](N)CCCNC(=N)N)C(C)C)CCCC=CCCCC(C)(C(=O)N[C@@H](Cc2ccccc2)C(=O)N[C@@H](C)C(=O)N[C@H](C(=O)N[C@@H](CC(C)C)C(=O)N[C@@H](CCCNC(=N)N)C(=O)N[C@@H](CCC(=O)O)C(=O)N[C@@H](Cc2c[nH]cn2)C(N)=O)[C@@H](C)O)NC1=O (stereo partly drawn) [H02] (H-RNRVK[ξαMeNle(6-ylidene)]VNL[ξαMeNle(6-ylidene)]FATLREH-NH2; staple 6-10; N-terminus and C-terminus assumed)		
		~7.5 µM	~7.5 µM	~7.5 µM	CC(C)C[C@H](NC(=O)[C@H](CCCCN)NC(=O)[C@@H](NC(=O)[C@@H](N)CCCNC(=N)N)C(C)C)C(=O)N[C@H](C(=O)N[C@@H](CC(N)=O)C(=O)N[C@@H](CC(C)C)C(=O)NC1(C)CCCCCCC=CCCCC(C)(C(=O)N[C@H](C(=O)N[C@@H](CO)C(N)=O)C(C)C)NC(=O)[C@H](CCC(=O)O)NC(=O)[C@H](CCCNC(=N)N)NC(=O)[C@H](CC(C)C)NC(=O)[C@H]([C@@H](C)O)NC(=O)[C@H](C)NC(=O)[C@H](Cc2ccccc2)NC1=O)C(C)C (stereo partly drawn) [IDP-H14-S15] (H-RVKLVNL[X1]FATLRE[ξαMeNle(6-ylidene)]VS-NH2; staple 8-15; N-terminus and C-terminus assumed)	active	
